# Assay results: PubChem BioAssay AID2060489 (Molecular Pharmacology Branch, DTP, NCI, 2025)
# Several values for one entry are separate records, joined by “and”; a condition that tells them apart may be missing. Equal entries are not always repeated.
# Test system: 922993-354-T-J3-PDC complex spheroids, viability
# Test: Anticancer human tumor 922993-354-T-J3-PDC patient-derived endometrial carcinoma cell line growth inhibition [GQUAD]
# Settings: for viability, T/C: stronger effect = lower value
# Excerpt: DNA G-quadruplex Stabilizer Agents in Combinations in Complex Spheroids
# A high-throughput screen of multi-cell type tumor spheroids was designed to identify active combinations of DNA G-quadruplex stabilizer agents and targeted small molecules. Complex spheroids include a stromal component modeled by human endothelial cells (HUVEC) and fibroblasts modeled by human mesenchymal stem cells (MSCs). The concentration ranges selected for each drug and investigational agent were based upon clinically achievable concentrations if the clinical Cmax of the agent was known.
# Compounds. The drugs and investigational agents: pidnarulex (CX-5461; NSC782164), APTO-253 (NSC789042), BRACO-19 (NSC847499), peposertib (NSC802822), ceralasertib (NSC780249), elimusertib (NSC800525), camonsertib (NSC841442), AZD-1390 (NSC803789), olaparib (NSC753686), talazoparib (NSC767125), ART-558 (NSC835418), sotorasib (NSC818433), MRTX-1133 (NSC836407), SN-38 (NSC673596), topotecan (NSC609699), etoposide (NSC141540), doxorubicin (NSC123127), gemcitabine (NSC613327), 5-fluorouracil (NSC19893), paclitaxel (NSC125973), vemurafenib (NSC761431), panobinostat (NSC761190), R-306465 (JNJ-16241199; NSC773264), adavosertib (NSC754352), TP-3654 (NSC805149), carboplatin (NSC241240), KSQ-4279 (NSC840948), and staurosporine (NSC755774) were obtained from the National Cancer Institute (NCI) Developmental Therapeutics Program Chemical Repository (34). The FDA-approved anticancer drug set is available from the NCI Developmental Therapeutics Program. […] The stock solutions were prepared in dimethyl sulfoxide (DMSO, Sigma-Aldrich, St. Louis, MO, cat. D2650) at 800-fold the tested concentration and stored at -70 degrees C prior to their use. All drugs and investigational agents were tested over a range starting from a high concentration at or near the clinical Cmax and decreasing in half-log increments. If the clinical Cmax for an agent had not been determined, the highest concentration tested was 10 microM.
# 2.3 Cell Culture. All cells were maintained in an incubator at 37 degrees C and 5% CO2 with 95% humidity. The PDC lines were cultured according to standard operating procedures established by the NCI PDMR. All PDCs were thawed and cultured in Matrigel-coated flasks prepared with a working solution of 1X Ham's F-12 nutrient mix, without supplementation (Invitrogen, cat. 11765054), 100 U/mL penicillin-streptomycin (Invitrogen, cat. 15140122), and 2.5% Matrigel (Corning Inc., cat. 354248) for the first three passages. The 857933-349-R-J2-PDC line was cultured in 6C/Colon 1B media, which includes advanced DMEM/F-12 (Thermo Fisher Scientific, cat. 12634028), 10 mM HEPES (Thermo Fisher Scientific, cat. 15630080), 1X GlutaMAX supplement (Thermo Fisher Scientific, cat. 35050061), 0.1 mg/mL primocin (InvivoGen, cat. ant-pm-2), 10% defined fetal bovine serum, heat inactivated (HyClone Laboratories Inc., cat. SH30070.03HI), 50% L-WRN conditioned media (ATCC, cat. CRL-3276), 1.25 mM N-Acetyl-L-cysteine (Sigma-Aldrich, cat. A9165), 10 mM nicotinamide (Sigma-Aldrich, cat. N0636), 1X B-27 supplement (Thermo Fisher Scientific, cat. 17504044), 1X N-2 supplement (Thermo Fisher Scientific, cat. 17502048), 10 microM Y-27632 dihydrochloride (Tocris Bioscience, cat. 1254), and 50 ng/mL human EGF recombinant protein (Thermo Fisher Scientific, cat. PHG0311). The 485176-168-R4-J1-PDC line was cultured in Panc media, which includes all 6C/Colon 1B media components plus 100 ng/mL human FGF-10 (Thermo Fisher Scientific, cat. 100-26), 500 nM SB-431542 (Selleckchem, cat. S1067), and gastrin (Tocris, cat. 3006).
# […]
# [1] = curve of first compound, second compound 0.0316 µM
# [2] = curve of first compound, second compound 0.1 µM
# [3] = curve of first compound, second compound 0.316 µM
# [4] = curve of first compound, second compound 1 µM
# [5] = curve of first compound, second compound 3.16 µM
# [6] = curve of first compound, second compound 10 µM
# [7] = second compound 0.0316 µM, first compound 0.0316 µM
# [8] = second compound 0.0316 µM, first compound 0.316 µM
# [9] = second compound 0.1 µM, first compound 0.0316 µM
# [10] = second compound 0.1 µM, first compound 0.316 µM
# [11] = second compound 0.316 µM, first compound 0.0316 µM
# [12] = second compound 0.316 µM, first compound 0.316 µM
# [13] = second compound 1 µM, first compound 0.0316 µM
# [14] = second compound 1 µM, first compound 0.316 µM
# [15] = second compound 3.16 µM, first compound 0.0316 µM
# [16] = second compound 3.16 µM, first compound 0.316 µM
# [17] = second compound 10 µM, first compound 0.0316 µM
# [18] = second compound 10 µM, first compound 0.316 µM
# 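Further: spheroids exposed to compounds for seven days.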
# 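Wherever viability, T/C is given: 100% = DMSO vehicle control viability.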
structure (smiles),measurement,setting,value
COc1ncnc(C2CC2)c1-c1ncc2cnn(Cc3ccc(-c4nc(C(F)(F)F)cn4C(C)C)cc3)c2n1 + CN(C)c1ccc(Nc2c3ccc(NC(=O)CCN4CCCC4)cc3nc3cc(NC(=O)CCN4CCCC4)ccc23)cc1,IC50,[1],> 10 µM
same,IC50,[2],> 10 µM
same,IC50,[3],> 10 µM
same,IC50,[4],> 10 µM
same,IC50,[5],> 10 µM
same,IC50,[6],> 10 µM
same,"viability, T/C",[7],94.4%
same,"viability, T/C","second compound 0.0316 µM, first compound 0.1 µM",96.5%
same,"viability, T/C",[8],84%
same,"viability, T/C","second compound 0.0316 µM, first compound 1 µM",72.3%
same,"viability, T/C","second compound 0.0316 µM, first compound 3.16 µM",63.5%
same,"viability, T/C","second compound 0.0316 µM, first compound 10 µM",87.7%
same,"viability, T/C",[9],86%
same,"viability, T/C","second compound 0.1 µM, first compound 0.1 µM",86.7%
same,"viability, T/C",[10],80.9%
same,"viability, T/C","second compound 0.1 µM, first compound 1 µM",86.6%
same,"viability, T/C","second compound 0.1 µM, first compound 3.16 µM",101%
same,"viability, T/C","second compound 0.1 µM, first compound 10 µM",67.2%
same,"viability, T/C",[11],90.8%
same,"viability, T/C","second compound 0.316 µM, first compound 0.1 µM",86%
same,"viability, T/C",[12],74.2%
same,"viability, T/C","second compound 0.316 µM, first compound 1 µM",81.2%
same,"viability, T/C","second compound 0.316 µM, first compound 3.16 µM",90.1%
same,"viability, T/C","second compound 0.316 µM, first compound 10 µM",74.2%
same,"viability, T/C",[13],73.8%
same,"viability, T/C","second compound 1 µM, first compound 0.1 µM",86.4%
same,"viability, T/C",[14],93.6%
same,"viability, T/C","second compound 1 µM, first compound 1 µM",74.3%
same,"viability, T/C","second compound 1 µM, first compound 3.16 µM",90.4%
same,"viability, T/C","second compound 1 µM, first compound 10 µM",76.8%
same,"viability, T/C",[15],98.3%
same,"viability, T/C","second compound 3.16 µM, first compound 0.1 µM",109%
same,"viability, T/C",[16],108%
same,"viability, T/C","second compound 3.16 µM, first compound 1 µM",98.3%
same,"viability, T/C","second compound 3.16 µM, first compound 3.16 µM",108%
same,"viability, T/C","second compound 3.16 µM, first compound 10 µM",76.6%
same,"viability, T/C",[17],115%
same,"viability, T/C","second compound 10 µM, first compound 0.1 µM",116%
same,"viability, T/C",[18],86.6%
same,"viability, T/C","second compound 10 µM, first compound 1 µM",107%
same,"viability, T/C","second compound 10 µM, first compound 3.16 µM",101%
same,"viability, T/C","second compound 10 µM, first compound 10 µM",62.9%
O=c1[nH]cc(F)c(=O)[nH]1,"viability, T/C",compound 0.0316 µM,104% and 107% and 113%
same,"viability, T/C",compound 0.1 µM,98.3% and 97.9% and 83.3%
same,"viability, T/C",compound 0.316 µM,99.5% and 94.9% and 75%
same,"viability, T/C",compound 1 µM,76% and 72.9% and 90.1%
same,"viability, T/C",compound 3.16 µM,81.2% and 74.1% and 57%
same,"viability, T/C",compound 10 µM,47.9% and 65.3% and 16.6%
same,IC50,curve of compound,> 10 µM and 3.85 µM
Cn1ncnc1[C@H]1c2n[nH]c(=O)c3cc(F)cc(c23)N[C@@H]1c1ccc(F)cc1 + Cc1cnc(CNC(=O)c2c(=O)c3ccc(N4CCCN(C)CC4)nc3n3c2sc2ccccc23)cn1,IC50,[1],> 0.316 µM
same,IC50,[2],0.0717 µM
same,IC50,[3],0.00719 µM
same,IC50,[4],< 0.000999 µM
same,IC50,[5],< 0.000999 µM
same,IC50,[6],< 0.000999 µM
same,"viability, T/C","second compound 0.0316 µM, first compound 0.000999 µM",93.2%
same,"viability, T/C","second compound 0.0316 µM, first compound 0.00316 µM",78.7%
same,"viability, T/C","second compound 0.0316 µM, first compound 0.00999 µM",76.6%
same,"viability, T/C",[7],72.8%
same,"viability, T/C","second compound 0.0316 µM, first compound 0.0999 µM",72.3%
same,"viability, T/C",[8],59.9%
same,"viability, T/C","second compound 0.1 µM, first compound 0.000999 µM",65.4%
same,"viability, T/C","second compound 0.1 µM, first compound 0.00316 µM",69.2%
same,"viability, T/C","second compound 0.1 µM, first compound 0.00999 µM",58.3%
same,"viability, T/C",[9],50.7%
same,"viability, T/C","second compound 0.1 µM, first compound 0.0999 µM",52.2%
same,"viability, T/C",[10],39.3%
same,"viability, T/C","second compound 0.316 µM, first compound 0.000999 µM",43.5%
same,"viability, T/C","second compound 0.316 µM, first compound 0.00316 µM",54.2%
same,"viability, T/C","second compound 0.316 µM, first compound 0.00999 µM",55.6%
same,"viability, T/C",[11],44.2%
same,"viability, T/C","second compound 0.316 µM, first compound 0.0999 µM",41.6%
same,"viability, T/C",[12],32%
same,"viability, T/C","second compound 1 µM, first compound 0.000999 µM",49.2%
same,"viability, T/C","second compound 1 µM, first compound 0.00316 µM",53.4%
same,"viability, T/C","second compound 1 µM, first compound 0.00999 µM",45.9%
same,"viability, T/C",[13],49.9%
same,"viability, T/C","second compound 1 µM, first compound 0.0999 µM",50.3%
same,"viability, T/C",[14],49.6%
same,"viability, T/C","second compound 3.16 µM, first compound 0.000999 µM",41.9%
same,"viability, T/C","second compound 3.16 µM, first compound 0.00316 µM",50.1%
same,"viability, T/C","second compound 3.16 µM, first compound 0.00999 µM",44%
same,"viability, T/C",[15],49.5%
same,"viability, T/C","second compound 3.16 µM, first compound 0.0999 µM",49.4%
same,"viability, T/C",[16],37.2%
same,"viability, T/C","second compound 10 µM, first compound 0.000999 µM",49%
same,"viability, T/C","second compound 10 µM, first compound 0.00316 µM",43.6%
same,"viability, T/C","second compound 10 µM, first compound 0.00999 µM",48.4%
same,"viability, T/C",[17],49%
same,"viability, T/C","second compound 10 µM, first compound 0.0999 µM",49.3%
same,"viability, T/C",[18],41.6%
